This note sets out measurements from patent US20150344444A1, “BET-PROTEIN-INHIBITING DIHYDROXYQUINOXALINONES” (BAYER PHARMA AKTIENGESELLSCHAFT, priority 2012, published 2015).

In assay [1] the test system is MOLM-13 cells. Briefly: MOLM-13 cell proliferation assay (alamarBlue). The note with it: inhibition of cell proliferation, 96 hours, human AML cell line. Type of assay: cell-based. How it is done: (§1) In accordance with the invention, the ability of the substances to inhibit cell proliferation was determined Cell viability was determined by means of the alamarBlue® reagent (Invitrogen) in a Victor X3 Multilabel Reader (Perkin Elmer). The excitation wavelength was 530 nm and the emission wavelength […].
The MOLM-13 cells (DSMZ, ACC 554) were sown at a concentration of 4000 cells/well in 100 μl of growth medium (RPMI1640, 10% FCS) on 96-well microtitre plates.
(§2) After overnight incubation at 37° C., the fluorescence values were determined (CI values). Then the plates were treated with various substance dilutions (1E-5 M, 3E-6 M, 1E-6 M, 3E-7 M, 1E-7 M, 3E-8 M, 1E-8 M) and incubated at 37° C. over 96 hours (MOLM-13, B16F10 cells) or 120 hours (MOLP-8 cells). Subsequently, the fluorescence values were determined (CO values). For the data analysis, the CI values were subtracted from the CO values and the results were compared between cells which had been treated with various dilutions of the substance or only with buffer solution. The IC50 values (substance concentration needed for 50% inhibition of cell proliferation) were calculated therefrom.
MOLM-13 human AML (acute myeloid leukaemia) cell line
In general terms: Resazurin is reduced to fluorescent resorufin, in cell work by metabolically active cells.

For assay [2], the target named is T1, BRD4 Bromo Domain 2 [BRD4(2)] (Homo sapiens, UniProt O60885).
T1 construct: N-terminally His6-tagged BRD4(2) (amino acids 357-445); made in house; host or cells: E. coli
Briefly: BRD4(2)/acetylated peptide H4 binding assay (TR-FRET). The note with it: inhibition of interaction between His6-tagged BRD4(2) (amino acids 357-445) and acetylated histone H4 peptide. The source says: Protein-Protein Interaction Assay: BRD4/Acetylated Peptide H4 Binding Assay
2. Assay Description for BRD4 Bromo Domain 2 [BRD4(2)]
To assess the BRD4(2) binding strength of the substances described in this application, the ability thereof to inhibit the interaction between BRD4(2) and acetylated histone H4 in a dose-dependent manner was quantified.
For this purpose, a time-resolved fluorescence resonance energy transfer (TR-FRET) assay was used, which measures the binding between N-terminally His6-tagged BRD4(2) (amino acids 357-445) and a synthetic acetylated histone H4 (Ac-H4) peptide with sequence SGRGK(Ac)GGK(Ac)GLGK(Ac)GGAK(Ac)RHRKVLRDNGSGSK-biotin. The recombinant BRD4(2) protein produced in house according to Filippakopoulos et al., Cell, 2012, 149:214-231 was expressed in E. coli and purified by means of (Ni-NTA) affinity and (Sephadex G-75) size exclusion chromatography. The Ac-H4 peptide can be purchased, for example, from Biosyntan (Berlin, Germany).
In the assay, typically 11 different concentrations of each substance (0.1 nM, 0.33 nM, 1.1 nM, 3.8 nM, 13 nM, 44 nM, 0.15 μM, 0.51 μM, 1.7 μM, 5.9 μM and 20 μM) were analysed as duplicates on the same microtitre plate. For this purpose, 100-fold concentrated solutions in DMSO were prepared by serial dilutions (1:3.4) of a 2 mM stock solution into a clear, 384-well microtitre plate (Greiner Bio-One, Frickenhausen, Germany). From this, 50 nl were transferred into a black test plate (Greiner Bio-One, Frickenhausen, Germany). The test was started by the addition of 2 μl of a 2.5-fold concentrated BRD4(2) solution (final concentration typically 100 nM in the 5 μl of reaction volume) in aqueous assay buffer [50 mM HEPES pH 7.5, 50 mM sodium chloride (NaCl); 50 mM potassium fluoride (KF); 0.25 mM CHAPS and 0.05% serum albumin (BSA)] to the substances in the test plate. This was followed by a 10-minute incubation step at 22° C. for the pre-equilibration of putative complexes between BRD4(2) and the substances.
The mixture was then incubated in the dark at 22° C. for one hour and then at 4° C. for at least 3 hours and for no longer than overnight. The formation of BRD4(2)/Ac-H4 complexes was determined by the measurement of the resonance energy transfer from the streptavidin-Eu chelate to the anti-6His-XL665 antibody present in the reaction. For this purpose, the fluorescence emission was measured at 620 nm and 665 nm after excitation at 330-350 nm in a TR-FRET measuring instrument, for example a Rubystar or Pherastar (both from BMG Lab Technologies, Offenburg, Germany) or a Viewlux (Perkin-Elmer). The ratio of the emissions at 665 nm and at 622 nm was taken as an indicator of the amount of BRD4(2)/Ac-H4 complexes formed.
The data (ratios) obtained were normalized, with 0% inhibition corresponding to the mean from the measurements for a set of controls (typically 32 data points) in which all the reagents were present. In these, in place of test substances, 50 nl of DMSO (100%) were used Inhibition of 100% corresponded to the mean from the measurements for a set of controls (typically 32 data points) in which all the reagents except BRD4(2) were present. The IC50 was determined by regression analysis based on a 4-parameter equation (minimum, maximum, IC50, Hill; Y=max+(min−max)/(1+(X/IC50)Hill)).
Background: In TR-FRET formats the signal depends on donor and acceptor labels being close together.

Assay [3] relates to MOLP-8 cells. Kind of assay: MOLP-8 cell proliferation assay (alamarBlue). Type of assay: cell-based. The note with it: inhibition of cell proliferation, 120 hours, human multiple myeloma cell line. As for the experimental part: as §1
The MOLP-8 cells (DSMZ, ACC 569) were sown at a concentration of 4000 cells/well in 100 μl of growth medium (RPMI1640, 20% FCS) on 96-well microtitre plates.
as §2
MOLP-8 human multiple myeloma cell line

In the case of `C[C@@H]1C(=O)N(C)c2ccc(Nc3ccc(C(=O)NC4CCCC4)cc3)cc2N1C1CCCC1` [Example 1, N-cyclopentyl-4-{[(3R)-4-cyclopentyl-1,3-dimethyl-2-oxo-1,2,3,4-tetrahydroquinoxalin-6-yl]amino}benzamide], the IC50 in assay [1] came out at 1160 nM; in assay [2], 326 nM; in assay [3], 1470 nM.

Consider `C[C@@H]1C(=O)N(C)c2ccc(Nc3ccc(C(=O)N4CCOCC4)cc3)cc2N1Cc1ccccc1` [Example 12, (3R)-4-benzyl-1,3-dimethyl-6-{[4-(morpholin-4-ylcarbonyl)phenyl]amino}-3,4-dihydroquinoxalin-2(1H)-one], for which the IC50 in assay [1] came to 300 nM; in assay [2], 47 nM; in assay [3], 98 nM.

Take `COc1ccc(CN2c3cc(Nc4ccc(S(=O)(=O)N5CCN(C)CC5)cc4)ccc3N(C)C(=O)[C@H]2C)cc1` [Example 43, (3R)-4-(4-methoxybenzyl)-1,3-dimethyl-6-({4-[(4-methylpiperazin-1-yl)sulphonyl]phenyl}amino)-3,4-dihydroquinoxalin-2(1H)-one]: the IC50 is 145 nM in assay [1], 54 nM in assay [2] and 35 nM in assay [3].

`COc1ccc(CN2c3cc(Nc4ccc(S(=O)(=O)N5CCN(C(C)C)CC5)cc4)ccc3N(C)C(=O)[C@H]2C)cc1` [Example 44, (3R)-4-(4-methoxybenzyl)-1,3-dimethyl-6-[(4-{[4-(propan-2-yl)piperazin-1-yl]sulphonyl}phenyl)amino]-3,4-dihydroquinoxalin-2(1H)-one]: the IC50 in assay [1] is 340 nM; in assay [2], 73 nM; in assay [3] it was 101 nM.

`C[C@@H]1C(=O)N(C)c2ccc(Nc3ccc(C(=O)NCC4COC4)cc3)cc2N1C1CCCCCC1` [Example 25, 4-{[(3R)-4-cycloheptyl-1,3-dimethyl-2-oxo-1,2,3,4-tetrahydroquinoxalin-6-yl]amino}-N-(oxetan-3-ylmethyl)benzamide]: the half-maximal inhibitory concentration (IC50) was determined as 1360 nM in assay [1], 357 nM in assay [2] and 1360 nM in assay [3].

Consider `COc1ccc(CN2c3cc(Nc4ccc(S(=O)(=O)N5CCOCC5)cc4)ccc3N(C)C(=O)[C@H]2C)cc1` [Example 42, (3R)-4-(4-methoxybenzyl)-1,3-dimethyl-6-{[4-(morpholin-4-ylsulphonyl)phenyl]amino}-3,4-dihydroquinoxalin-2(1H)-one], for which the half-inhibitory concentration (IC50) in assay [1] came to 149 nM; in assay [2], 68 nM; in assay [3], 61 nM.

For the molecule `C[C@@H]1C(=O)N(C)c2ccc(Nc3ccc(S(=O)(=O)N(C)C)cc3)cc2N1C1CCOCC1` [Example 46, 4-{[(3R)-1,3-dimethyl-2-oxo-4-(tetrahydro-2H-pyran-4-yl)-1,2,3,4-tetrahydroquinoxalin-6-yl]amino}-N,N-dimethylbenzenesulphonamide], the concentration for half-maximal inhibition (IC50) in assay [1] turned out to be 719 nM; in assay [2] it was 148 nM; in assay [3], 365 nM.

As for `COc1ccc(CN2c3cc(Nc4ccc(C(=O)NC5CCN(C)CC5)cc4)ccc3N(C)C(=O)[C@H]2C)cc1` [Example 17, 4-{[(3R)-4-(4-methoxybenzyl)-1,3-dimethyl-2-oxo-1,2,3,4-tetrahydroquinoxalin-6-yl]amino}-N-(1-methylpiperidin-4-yl)benzamide], the values for the IC50 in assay [1], in assay [2] and in assay [3] were 315 nM, 83 nM and 69 nM, respectively.

With `COc1ccc(CN2c3cc(Nc4ccc(S(=O)(=O)N(C)C)cc4)ccc3N(C)C(=O)[C@H]2C)cc1` [Example 41, 4-{[(3R)-4-(4-methoxybenzyl)-1,3-dimethyl-2-oxo-1,2,3,4-tetrahydroquinoxalin-6-yl]amino}-N,N-dimethylbenzenesulphonamide], the figures for the IC50 in assay [1], in assay [2] and in assay [3] were 145 nM, 48 nM and 77 nM, respectively.

In the case of `C[C@@H]1C(=O)N(C)c2ccc(Nc3ccc(C(=O)NC4CN(C)C4)cc3)cc2N1C1CCOCC1` [Example 34, 4-{[(3R)-1,3-dimethyl-2-oxo-4-(tetrahydro-2H-pyran-4-yl)-1,2,3,4-tetrahydroquinoxalin-6-yl]amino}-N-(1-methylazetidin-3-yl)benzamide], the IC50 in assay [1] was determined as 2100 nM; in assay [2], 238 nM; in assay [3], 1540 nM.

Turning to `CC(C)NC(=O)c1ccc(Nc2ccc3c(c2)N(C2CCCC2)[C@H](C)C(=O)N3C)cc1` [Example 7, 4-{[(3R)-4-cyclopentyl-1,3-dimethyl-2-oxo-1,2,3,4-tetrahydroquinoxalin-6-yl]amino}-N-isopropylbenzamide], the concentration for half-maximal inhibition (IC50) is 1440 nM in assay [1], 159 nM in assay [2] and 637 nM in assay [3].

Regarding `COc1ccc(CN2c3cc(Nc4ccc(C(=O)NCC5COC5)cc4)ccc3N(C)C(=O)[C@H]2C)cc1` [Example 19, 4-{[(3R)-4-(4-methoxybenzyl)-1,3-dimethyl-2-oxo-1,2,3,4-tetrahydroquinoxalin-6-yl]amino}-N-(oxetan-3-ylmethyl)benzamide], the concentration for half-maximal inhibition (IC50) in assay [1] stood at 335 nM; in assay [2], 110 nM; in assay [3], 124 nM.

On to `C[C@@H]1C(=O)N(C)c2ccc(Nc3ccc(C(=O)NCCN4CCN(C)CC4)cc3)cc2N1C1CCOCC1` [Example 30, 4-{[(3R)-1,3-dimethyl-2-oxo-4-(tetrahydro-2H-pyran-4-yl)-1,2,3,4-tetrahydroquinoxalin-6-yl]amino}-N-[2-(4-methylpiperazin-1-yl)ethyl]benzamide], for which the concentration for half-maximal inhibition (IC50) in assay [1] was determined as 1700 nM; in assay [2] it was 351 nM; in assay [3] it was 869 nM.

Regarding `C[C@@H]1C(=O)N(C)c2ccc(Nc3ccc(C(=O)N4CCOCC4)cc3)cc2N1C1CCCC1` [Example 6, (3R)-4-cyclopentyl-1,3-dimethyl-6-{[4-(morpholin-4-ylcarbonyl)phenyl]amino}-3,4-dihydroquinoxalin-2(1H)-one], the figures for the half-inhibitory concentration (IC50) in assay [1], in assay [2] and in assay [3] were 698 nM, 80 nM and 271 nM, respectively.

As to `C[C@@H]1C(=O)N(C)c2ccc(Nc3ccc(C(=O)N4CCOCC4)cc3)cc2N1C1CCCCCC1` [Example 24, (3R)-4-cycloheptyl-1,3-dimethyl-6-{[4-(morpholin-4-ylcarbonyl)phenyl]amino}-3,4-dihydroquinoxalin-2(1H)-one], the half-maximal inhibitory concentration (IC50) in assay [1] was 967 nM; in assay [2] it was 102 nM; in assay [3] it was 662 nM.

As a reminder, the IC50 is the concentration that gives 50% inhibition. The low end stands for higher potency, the high end for lower potency.
